# In patent US6632932B1, “Trisazo compound” (Orient Chemical Industries, Ltd., priority 2001, dated 2003):
# Assays:
# [1] = Evaluation of light resistance of ink jet print (xenon fade meter); type: physicochemical; conditions: amount of energy required for OD value (about 1.0) to decrease to 70%; ink with 6.0% by weight dye, pH 9.0-9.5 (ammonia), printed on PM Photo Paper; xenon 36 W/m^2 (300 to 400 nm), 24° C., 55% humidity
# Description: Preparation of Samples for Test:
# An ink, the pH of which was adjusted between 9.0 and 9.5 with ammonia, prepared using the composition shown above was set into an ink jet printer (EM-900C manufactured by Seiko Epson Corp.). A piece of paper specially designed for ink jet (PM Photo Paper (Model: KA420PSK) manufactured by Seiko Epson Corp.) was printed with the ink, and it was used as a sample to be tested.
# Light irradiation: The sample to be tested was set to a holder. Light irradiation with a xenon fade meter was carried out under the following condition:
# Method for evaluation: The sample is taken out after each irradiation of an energy of 3000 kJ/m^2, and a part with an optical density (OD value) of about 1.0 is measured with a Macbeth density meter. The total amount of light irradiated at the time when the OD value has become 70% the original value is calculated.
# Criterion for evaluation: The amount of energy required for the OD value to decrease to 70%.
# Solubility in water = type: physicochemical; conditions: under an ammoniacal alkaline condition
# [2] = Mutagenicity test (Ames test)
Compound,Evaluation of light resistance [1],also measured
Nc1c(N=Nc2ccc3cc(S(=O)(=O)O)c(N=Nc4cccc(C(=O)O)c4)c(O)c3c2)cc(S(=O)(=O)O)c2cc(S(=O)(=O)O)c(N=Nc3ccccc3C(=O)O)c(O)c12 [Trisazo compound (11)],◯,
"Cc1cc(-c2ccc(N=Nc3c(S(=O)(=O)O)cc4cc(S(=O)(=O)O)c(N=Nc5ccccc5)c(O)c4c3N)c(C)c2)ccc1N=Nc1ccc(N)cc1N [C. I. Direct Black 154, reference compound]",×,
Nc1c(N=Nc2ccccc2C(=O)O)cc(S(=O)(=O)O)c2cc(S(=O)(=O)O)c(/N=N\c3ccc4cc(S(=O)(=O)O)c(N=Nc5ccccc5C(=O)O)c(O)c4c3)c(O)c12 [Trisazo compound (14)],"⊚ (Not less than 70,000 kJ/m^2)",
Nc1c(N=Nc2ccc3c(O)c(N=Nc4ccccc4C(=O)O)c(S(=O)(=O)O)cc3c2)cc(S(=O)(=O)O)c2cc(S(=O)(=O)O)c(N=Nc3ccccc3C(=O)O)c(O)c12 [Trisazo compound (2)],"⊚ (Not less than 70,000 kJ/m^2)",
"Nc1cc(O)ccc1N=Nc1ccc(Nc2ccc(N=Nc3c(S(=O)(=O)O)cc4cc(S(=O)(=O)O)c(N=Nc5ccccc5)c(O)c4c3N)cc2S(=O)(=O)O)cc1 [C. I. Direct Black 168, reference compound]","Δ (Not less than 10,000 kJ/m^2 and less than 40,000 kJ/m^2)",
Nc1c(N=Nc2ccc3cc(S(=O)(=O)O)c(N=Nc4ccccc4C(=O)O)c(O)c3c2)cc(S(=O)(=O)O)c2cc(S(=O)(=O)O)c(N=Nc3ccccc3C(=O)O)c(O)c12 [Trisazo compound (1)],"⊚ (Not less than 70,000 kJ/m^2)","solubility in water (Solubility in water): 14%; mutagenicity test (Ames test), ratio [2]: 1.27 times; result of mutagenicity test (Ames test) [2]: negative"
Nc1c(N=Nc2ccc3cc(S(=O)(=O)O)c(N=Nc4ccccc4C(=O)O)c(O)c3c2)cc(S(=O)(=O)O)c2cc(S(=O)(=O)O)c(N=Nc3cc(C(=O)O)ccc3C(=O)O)c(O)c12 [Trisazo compound (8)],"⊚ (Not less than 70,000 kJ/m^2)",
COc1ccc(N=Nc2c(S(=O)(=O)O)cc3c(S(=O)(=O)O)cc(N=Nc4ccc5cc(S(=O)(=O)O)c(N=Nc6cc(Cl)ccc6C(=O)O)c(O)c5c4)c(N)c3c2O)c(S(=O)(=O)O)c1 [Trisazo compound (6)],◯,
CCOc1ccc(N=Nc2c(S(=O)(=O)O)cc3ccc(N=Nc4cc(S(=O)(=O)O)c5cc(S(=O)(=O)O)c(N=Nc6ccccc6C(=O)O)c(O)c5c4N)cc3c2O)cc1 [Trisazo compound (5)],"⊚ (Not less than 70,000 kJ/m^2)",
